Publication PMC10318527, “Utilization of dietary mixed-linkage β-glucans by the Firmicute Blautia producta” (The Journal of Biological Chemistry, 2023)
Where “and” joins values, the source holds several entries; their conditions need not be identical. Equal entries are not always repeated. Where two headings read alike, the source gives them in different places.

Tests used:
BpGH16MLG = test: Initial screening of BpGH16MLG against substrates (TLC); format: biochemical, Blautia producta ATCC 27340; conditions: pH 5.7, 37 °C, 2 h
Protocol: After the appropriate incubation time, the reaction was terminated by boiling (5 min), and generated oligosaccharides were analyzed by thin layer chromatography (TLC). Typically, 1 μl of the reaction mixture was used for TLC analysis. TLC analysis was performed on Silica Gel 60 F254 (Merck), and produced sugars were visualized by spraying TLC with 5% H2SO4 in ethanol, followed by heating.

BpSBPMLG = BpSBPMLG (Blautia producta, UniProt A0ABX6JB09); test: Isothermal titration calorimetry of oligosaccharide binding to BpSBPMLG; design: species or system Blautia producta ATCC 27340
Chain of BpSBPMLG (A0ABX6JB09 entry or part of it): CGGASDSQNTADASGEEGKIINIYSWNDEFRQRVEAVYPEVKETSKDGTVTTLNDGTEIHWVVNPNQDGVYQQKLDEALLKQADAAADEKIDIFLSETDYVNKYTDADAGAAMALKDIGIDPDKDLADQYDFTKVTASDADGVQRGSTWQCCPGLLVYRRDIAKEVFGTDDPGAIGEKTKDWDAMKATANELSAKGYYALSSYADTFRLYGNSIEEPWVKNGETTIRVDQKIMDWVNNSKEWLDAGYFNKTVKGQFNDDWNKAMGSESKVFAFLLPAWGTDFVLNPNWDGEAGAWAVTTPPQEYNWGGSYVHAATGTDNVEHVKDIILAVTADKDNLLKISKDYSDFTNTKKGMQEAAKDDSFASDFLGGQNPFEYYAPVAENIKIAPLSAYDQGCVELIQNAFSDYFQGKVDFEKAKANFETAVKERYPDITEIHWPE
Protocol: The binding of β-(1,4), β-(1,3), and MLG-oligosaccharides to BpSBPMLG was measured at 25 °C in 10 mM sodium phosphate buffer (pH 7) using a MicroCal PEAQ-ITC (Malvern). The protein was extensively dialyzed against 10 mM sodium phosphate and all glycan ligands were also dissolved in the same buffer to minimize the heat of dilution. 13 injections of an oligosaccharide were titrated on BpSBPMLG present in the sample cell. Various preliminary titration setups were tried by changing amounts of protein (5–100 μM) and ligand (50 μM–10 mM) to get the best experimental conditions. Thermodynamic binding parameters [calculates binding affinity (Kd), stoichiometry (n), enthalpy (ΔH), Gibbs free energy change (ΔG), and entropy (ΔS)] were determined using the MicroCal PEAQ-ITC analysis software.

BpGH94MLG [1] = molecular target: T1, BpGH94MLG (Blautia producta, UniProt A0A7G5MNS2); test: Phosphorolysis activity of BpGH94MLG on substrates (TLC); format: biochemical, Blautia producta ATCC 27340; conditions: inorganic phosphate, 37 °C
T1 sequence (A0A7G5MNS2 1-804): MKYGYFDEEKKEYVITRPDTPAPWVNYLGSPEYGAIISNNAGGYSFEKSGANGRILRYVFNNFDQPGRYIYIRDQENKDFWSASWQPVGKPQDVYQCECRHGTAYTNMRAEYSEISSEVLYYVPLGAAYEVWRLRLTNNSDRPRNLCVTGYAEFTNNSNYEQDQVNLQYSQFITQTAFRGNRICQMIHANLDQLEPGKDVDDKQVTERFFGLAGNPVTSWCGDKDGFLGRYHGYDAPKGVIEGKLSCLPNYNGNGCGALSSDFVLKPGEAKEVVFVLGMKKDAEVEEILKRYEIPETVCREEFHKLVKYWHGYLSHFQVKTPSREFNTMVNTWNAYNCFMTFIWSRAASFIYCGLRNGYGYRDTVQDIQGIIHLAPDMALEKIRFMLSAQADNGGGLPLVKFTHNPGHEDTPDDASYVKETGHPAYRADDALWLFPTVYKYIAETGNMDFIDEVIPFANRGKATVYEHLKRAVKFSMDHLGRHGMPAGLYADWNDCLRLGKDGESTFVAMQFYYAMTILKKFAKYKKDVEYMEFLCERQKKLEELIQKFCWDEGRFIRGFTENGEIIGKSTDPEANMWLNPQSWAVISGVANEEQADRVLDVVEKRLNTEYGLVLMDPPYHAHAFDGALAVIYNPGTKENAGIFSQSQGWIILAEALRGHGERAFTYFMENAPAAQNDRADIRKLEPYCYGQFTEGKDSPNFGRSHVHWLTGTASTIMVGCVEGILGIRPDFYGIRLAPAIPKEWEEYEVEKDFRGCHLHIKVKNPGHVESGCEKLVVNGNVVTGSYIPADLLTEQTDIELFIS
Protocol: (§1) TLC was used for analyzing enzymatic actions. […] Kinetics parameters for BpGH94MLG were determined with G4G3G, G4G4G3G and cellotriose, following a p-hydroxybenzoic acid hydrazide (PAHBAH) reducing sugar assay ([69]).

BpGH3-AR8MLG = BpGH3-AR8MLG (Blautia producta, UniProt A0ABX6J8C8); format: biochemical, Blautia producta ATCC 27340; conditions: for Km / kcat: PAHBAH assay, 100 mM HEPES pH 6.5, 37 °C
Chain of BpGH3-AR8MLG (A0ABX6J8C8 entry or part of it): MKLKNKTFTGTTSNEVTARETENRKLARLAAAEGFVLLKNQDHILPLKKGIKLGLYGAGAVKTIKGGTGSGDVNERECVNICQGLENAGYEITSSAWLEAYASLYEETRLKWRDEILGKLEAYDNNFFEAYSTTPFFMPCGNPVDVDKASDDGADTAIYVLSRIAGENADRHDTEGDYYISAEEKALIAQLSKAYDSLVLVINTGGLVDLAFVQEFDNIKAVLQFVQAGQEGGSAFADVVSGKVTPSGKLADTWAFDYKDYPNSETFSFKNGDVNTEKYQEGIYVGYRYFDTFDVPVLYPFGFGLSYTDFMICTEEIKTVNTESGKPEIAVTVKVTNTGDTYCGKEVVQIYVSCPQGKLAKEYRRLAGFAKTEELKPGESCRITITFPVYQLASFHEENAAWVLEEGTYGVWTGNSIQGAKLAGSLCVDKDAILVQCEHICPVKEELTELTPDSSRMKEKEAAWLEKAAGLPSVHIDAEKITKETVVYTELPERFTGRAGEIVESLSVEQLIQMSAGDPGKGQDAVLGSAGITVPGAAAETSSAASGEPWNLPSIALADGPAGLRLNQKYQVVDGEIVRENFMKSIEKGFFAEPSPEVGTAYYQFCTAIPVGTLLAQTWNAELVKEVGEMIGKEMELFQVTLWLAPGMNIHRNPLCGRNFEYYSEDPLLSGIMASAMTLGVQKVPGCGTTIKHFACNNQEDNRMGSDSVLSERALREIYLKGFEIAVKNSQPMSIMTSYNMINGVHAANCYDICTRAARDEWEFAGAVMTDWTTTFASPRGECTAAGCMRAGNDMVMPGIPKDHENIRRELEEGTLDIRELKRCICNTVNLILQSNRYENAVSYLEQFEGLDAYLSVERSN
Protocol: (§2) 150 μl of a freshly prepared 8:2 mixture of reagent A (50 mM sodium sulfite, 0.3 M 4-hydroxybenzhydrazide and 0.6 M HCl) and reagent B (50 mM trisodium citrate, 10 mM CaCl2, 0.5 M NaOH) were added to 50 μl sample. The reaction cocktail was boiled for 10 min at 100 °C. After the reaction was cooled down, the absorbance was recorded at 410 nm using the SpectraMax i3x multi-mode microplate reader. A calibration curve with different concentrations of glucose (0, 2, 4, 8, 16, 40, 80, 100, 200, 300, and 500 μM) was employed for each experiment to calculate the released amount of glucose (reducing end equivalents). The same samples were also used for control measurement, and the control value was subtracted from test reading prior to calculate kinetics parameters. In all cases, the Km, Vmax, and kcat were analyzed on GraphPad Prism. Three independent replicates were used for each test. TLC analyses were used for understanding the enzymatic degradation profiles of various oligosaccharides.

TaCDP = test system: TaCDP; design: method as in PMID 28687766; conditions: phosphorolytic reaction; cited from earlier work
BpGH94MLG [2] = molecular target: T1, BpGH94MLG; test: Phosphorolysis kinetics of BpGH94MLG (PAHBAH assay); format: biochemical, Blautia producta ATCC 27340
Protocol: as §1

BpGH3-X62MLG = molecular target: T2, BpGH3-X62MLG (Blautia producta, UniProt A0ABX6JIM0); test: Hydrolysis kinetics of BpGH3-X62MLG (PAHBAH assay, TLC)
T2 sequence (A0ABX6JIM0 1-920): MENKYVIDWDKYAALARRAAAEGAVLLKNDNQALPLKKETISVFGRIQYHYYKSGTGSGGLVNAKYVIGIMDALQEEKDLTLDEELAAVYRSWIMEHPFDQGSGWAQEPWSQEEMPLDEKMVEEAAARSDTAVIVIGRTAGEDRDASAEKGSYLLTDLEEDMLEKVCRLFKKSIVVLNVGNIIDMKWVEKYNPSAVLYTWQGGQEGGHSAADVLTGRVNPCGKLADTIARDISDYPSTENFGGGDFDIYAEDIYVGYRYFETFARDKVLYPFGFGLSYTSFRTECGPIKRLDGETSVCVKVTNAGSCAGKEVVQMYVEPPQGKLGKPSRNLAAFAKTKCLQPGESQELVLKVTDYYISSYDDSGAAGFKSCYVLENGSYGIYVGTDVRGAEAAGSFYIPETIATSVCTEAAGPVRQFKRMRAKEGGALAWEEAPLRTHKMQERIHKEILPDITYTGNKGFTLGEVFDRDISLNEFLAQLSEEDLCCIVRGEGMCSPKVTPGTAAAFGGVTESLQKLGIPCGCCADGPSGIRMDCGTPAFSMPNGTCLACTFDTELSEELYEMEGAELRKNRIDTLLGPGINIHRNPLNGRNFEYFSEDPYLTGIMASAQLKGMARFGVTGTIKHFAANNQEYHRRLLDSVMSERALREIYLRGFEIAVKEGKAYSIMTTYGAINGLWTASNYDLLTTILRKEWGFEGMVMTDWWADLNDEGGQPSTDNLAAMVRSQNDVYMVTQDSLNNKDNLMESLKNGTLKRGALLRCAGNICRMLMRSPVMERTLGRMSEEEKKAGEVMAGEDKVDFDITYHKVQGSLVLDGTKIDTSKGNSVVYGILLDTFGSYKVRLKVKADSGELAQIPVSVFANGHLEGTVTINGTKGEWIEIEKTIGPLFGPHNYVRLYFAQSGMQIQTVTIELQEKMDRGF
Protocol: as §2

BpGH16MLG (BPGH16) = test: Michaelis-Menten kinetics of BpGH16MLG on β-glucans (DNS assay); format: biochemical, Blautia producta ATCC 27340; conditions: native BPGH16; DNS assay; pH 5.7, 37 °C
Protocol: Then, reactions were terminated by boiling for 5 min. Enzymatic assays were determined with 3,5- dinitrosalicylic acid (DNS) assay ([85]). In brief, 0.05 g Na2SO3 and 1 g DNS were mixed in a 50 ml water-containing reagent bottle and stirred about 6 h using a magnetic stirrer. After that, 200 μl phenol was added and made up to 100 ml. A working solution of DNS was prepared by adding 50 μl glucose (20% (w/v) stock) in prepared 100 ml of reagent mixtures and immediately used for experiments without adding NaOH. 80 μl DNS reagent was added to the reaction mixtures and incubated at 100 °C for 10 min, followed by ice-cooling for 10 min. Consequently, recorded the developed color spectrophotometrically at 575 nm ([85]). A standard curve generated by different concentrations of maltose was used for determining released reducing sugars in each case.

[3] = ITC at 25 °C, 10 mM sodium phosphate pH 7.0

Row | Molecule | activity of BpGH16MLG on substrate (initial screening) (BpGH16MLG) | Kd (BpSBPMLG) | binding to BpSBPMLG (in words) (BpSBPMLG; ITC) | n (binding stoichiometry) (BpSBPMLG; [3]) | ΔG^0 (BpSBPMLG; [3]) | ΔH (BpSBPMLG; [3]) | phosphorolysis activity of BpGH94MLG (in words) (BpGH94MLG [1]) | -TΔS^0 (BpSBPMLG; [3]) | other results
1 | OC[C@H]1O[C@@H](O[C@H]2[C@H](O)[C@@H](CO)OC(O)[C@@H]2O)[C@H](O)[C@@H](O)[C@@H]1O (some centres unmarked) [Laminaribiose] | did not show activity | 22.1 µM | some affinity | 1.03 ± 0.02 | -6.35 kcal/mol | -3.14 ± 0.16 kcal/mol | did not show any phosphorolysis activity | – | Km (BpGH3-AR8MLG): 240 ± 30 µM; kcat (BpGH3-AR8MLG): 12 ± 0.2 s⁻¹
2 | yeast β-glucan | did cleave | – | – | – | – | – | – | – | –
3 | OC[C@H]1O[C@H](O[C@H]2[C@H](O)[C@@H](O)[C@H](O)O[C@@H]2CO)[C@H](O)[C@@H](O)[C@@H]1O [maltose] | did not show activity | – | no detectable affinity | – | – | – | did not show any phosphorolysis activity | – | –
4 | OC[C@H]1O[C@@H](O[C@H]2[C@H](O)[C@@H](O)[C@H](O[C@H]3[C@H](O)[C@@H](O)[C@H](O[C@H]4[C@H](O)[C@@H](O)C(O)O[C@@H]4CO)O[C@@H]3CO)O[C@@H]2CO)[C@H](O)[C@@H](O)[C@@H]1O (some centres unmarked) [Cellotetraose] | – | 0.75 µM | – | 0.45 ± 0.02 | -8.35 kcal/mol | -16.6 ± 0.75 kcal/mol | – | 8.25 kcal/mol | n (binding stoichiometry) (BpSBPMLG; ITC at 25 °C, 10 mM sodium phosphate pH 7.0, listed as cellotetraose): 0.45; Km (BpGH3-AR8MLG): 470 ± 60 µM; kcat (BpGH3-AR8MLG): 20 ± 0.2 s⁻¹
5 | OC[C@H]1O[C@@H](O[C@@H]2[C@@H](O)[C@H](O[C@@H]3[C@@H](O)[C@H](O[C@H]4[C@H](O)[C@@H](CO)OC(O)[C@@H]4O)O[C@H](CO)[C@H]3O)O[C@H](CO)[C@H]2O)[C@H](O)[C@@H](O)[C@@H]1O (some centres unmarked) [Laminaritetraose] | – | – | – | – | – | -0.15 ± 0.12 kcal/mol | – | 5.29 kcal/mol | Kd (BpSBPMLG; ITC, read-out: Kd): 5600 µM
6 | O=C[C@H](O)[C@@H](O)[C@H](O[C@@H]1O[C@H](CO)[C@@H](O)[C@H](O)[C@H]1O)[C@H](O)CO [Cellobiose] | did not show activity | 30.6 µM | some affinity | 0.78± 0.18 | -6.2 kcal/mol | -7.0 ± 2.2 kcal/mol | did not show any phosphorolysis activity | 0.8 kcal/mol | Km (BpGH3-AR8MLG): 200 ± 30 µM; kcat (BpGH3-AR8MLG): 8 ± 0.1 s⁻¹; Km (TaCDP): 120 µM; kcat (TaCDP): 0.23 s⁻¹
7 | OC[C@H]1O[C@@H](O[C@H]2[C@H](O)[C@@H](O)[C@H](O[C@H]3[C@H](O)[C@@H](O)[C@H](O[C@H]4[C@H](O)[C@@H](CO)OC(O)[C@@H]4O)O[C@@H]3CO)O[C@@H]2CO)[C@H](O)[C@@H](O)[C@@H]1O (stereo partly drawn) [G4G4G3G, Glc-β-1-4-Glc-β-1-4-Glc-β-1-3-Glc] | – | 5.14 µM | – | 0.77 and 0.77 ± 0.02 | -7.22 kcal/mol | -12.9 ± 0.85 kcal/mol | – | 5.7 kcal/mol | Kd (BpSBPMLG; [3]): 5.14 µM; Km fold-change (BpGH94MLG [2]): ~0.75 fold; kcat/Km higher compared to G4G3G (BpGH94MLG [2]): 1.6 fold; kcat/Km higher compared to cellotriose (BpGH94MLG [2]): 2.4 fold; cleavage by BpGH3-AR8MLG (in words) (BpGH3-AR8MLG; TLC): cleaved; kcat (BpGH3-X62MLG; PAHBAH assay, 100 mM HEPES pH 6.5, 37 °C): 18 ± 0.3 s⁻¹; cleavage by BpGH3-X62MLG (in words) (BpGH3-X62MLG; TLC): cleaved
8 | Oat β-glucan | did cleave | – | – | – | – | – | – | – | Km (BpGH16MLG (BPGH16)): 0.32 ± 0.05 mg/mL; kcat (BpGH16MLG (BPGH16)): 46 ± 0.8 s⁻¹
9 | OC[C@H]1O[C@@H](O[C@@H]2[C@@H](O)[C@H](O[C@H]3[C@H](O)[C@@H](CO)OC(O)[C@@H]3O)O[C@H](CO)[C@H]2O)[C@H](O)[C@@H](O)[C@@H]1O (some centres unmarked) [Laminaritriose] | did cleave | 3.41 µM | – | 0.9 ± 0.01 | -7.46 kcal/mol | -3.66 ± 0.02 kcal/mol | did not show any phosphorolysis activity | 3.8 kcal/mol | –
10 | OC[C@H]1O[C@@H](O[C@H]2[C@H](O)[C@@H](O)[C@H](O)O[C@@H]2CO)[C@H](O)[C@@H](O)[C@H]1O [lactose] | – | – | no detectable affinity | – | – | – | – | – | –
11 | lentinan | did cleave | – | – | – | – | – | – | – | –
12 | OC[C@H]1O[C@@](CO)(O[C@H]2O[C@H](CO)[C@@H](O)[C@H](O)[C@H]2O)[C@@H](O)[C@@H]1O [sucrose] | did not show activity | – | – | – | – | – | did not show any phosphorolysis activity | – | –
13 | Gentiobiose | did not show activity | – | no detectable affinity | – | – | – | did not show any phosphorolysis activity | – | –
